Experiment in all cases: Post-emergence foliage spray, pot culture, fresh weight inhibition (Tables 1-48, 51-98, 101-148; 24 days)
Common to all, as to assay type: in vivo

Assay [1] deals with Echinochloa crusgalli var. zelayensis. Conditions: Echinochloa crus-galli, 576 h, read-out: Control effect (%) of B applied alone in corresponding dose; for pest or weed control at 30 g/ha: B 30 g a.i./ha. A digest of the protocol: (§1)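 Pot-grown weeds were thinned to 15 per pot (45 per treatment) and sprayed on foliage at the 5–6-leaf stage for grasses or the 6–7-leaf stage for broadleaves. Agents were dissolved in acetone with 0.1% Tween-80 and applied at 450 kg/ha spray volume and 0.3 MPa. Plants were then kept in a greenhouse. Above-ground fresh weight of survivors, with dead plants counted as zero, gave inhibition versus a solvent/emulsifier blank.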

In assay [2] the test system is Echinochloa caudate. The settings on record: Echinochloa, 576 h, read-out: Control effect (%) of B applied alone in corresponding dose. A digest of the protocol:
as §1

Assay [3] concerns Echinochloa oryzoides. Conditions: Echinochloa oryzoides, 576 h, read-out: Control effect (%) of B applied alone in corresponding dose; for pest or weed control at 30 g/ha: 30 g a.i./ha. A digest of the protocol: as §1
Setting [4] is: foliar, B 7.5 g a.i./ha, foliage spray, 24 days.
Where [5] appears, read: foliar, B 15 g a.i./ha, foliage spray, 24 days.

Where two headings read alike, the source gives them in different places.

Turning to `COCc1cnc(C2=NC(C)(C(C)C)C(=O)N2)c(C(=O)O)c1` (stereo not drawn) [imazamox], the pest or weed control at 3.75 g/ha was 6.9% in assay [1] (foliar, B 3.75 g a.i./ha, foliage spray, 24 days); 7.6% in assay [2] (imazamox 3.75 g a.i./ha); 4% in assay [3] (Table 109, 3.75 g a.i./ha). Also, the pest or weed control at 7.5 g/ha is 14.2% in assay [1] (setting [4]); 16.5% in assay [2] (imazamox 7.5 g a.i./ha); 12.6% in assay [3] (Table 109, 7.5 g a.i./ha). Also, the pest or weed control at 15 g/ha in assay [1] (setting [5]) stood at 25.1%; in assay [2] (imazamox 15 g a.i./ha), 24.8%; in assay [3] (Table 109, 15 g a.i./ha) it was 27.6%. In addition, the pest or weed control at 30 g/ha in assay [1] (foliar, foliage spray, 24 days) came out at 54.8%; in assay [2] (imazamox 30 g a.i./ha), 53.8%; in assay [3] (Table 109) it was 54.4%.
Consider `CCc1cnc(C2=NC(C)(C(C)C)C(=O)N2)c(C(=O)O)c1` (stereo not drawn) [imazethapyr], for which the pest or weed control at 7.5 g/ha is 3.2% in assay [1] (setting [4]); 4.2% in assay [2] (imazethapyr 7.5 g a.i./ha); 6.7% in assay [3] (Table 107, 7.5 g a.i./ha). Also, the pest or weed control at 15 g/ha is 19.8% in assay [1] (setting [5]); 18.1% in assay [2] (imazethapyr 15 g a.i./ha); 17.8% in assay [3] (Table 107, 15 g a.i./ha). Moreover, the pest or weed control at 30 g/ha in assay [1] (foliar, foliage spray, 24 days) worked out at 31.2%; in assay [2] (imazethapyr 30 g a.i./ha), 34.8%; in assay [3] (Table 107), 34.6%. In addition, the pest or weed control at 60 g/ha amounted to 59.2% in assay [1] (foliar, B 60 g a.i./ha, foliage spray, 24 days); 55.6% in assay [2] (imazethapyr 60 g a.i./ha); 58.2% in assay [3] (Table 107, 60 g a.i./ha).
In the case of `Cc1nn(-c2cc(NS(C)(=O)=O)c(Cl)cc2Cl)c(=O)n1C(F)F` [sulfentrazone], the pest or weed control at 1.875 g/ha in assay [1] (sulfentrazone 1.875 g a.i./ha) is 2.8%; in assay [2] (Table 97, 1.875 g a.i./ha), 6.6%; in assay [3] (B 1.875 g a.i./ha), 5.8%. Besides, the pest or weed control at 3.75 g/ha in assay [1] (sulfentrazone 3.75 g a.i./ha) was found to be 15.4%; in assay [2] (Table 97, 3.75 g a.i./ha), 10.8%; in assay [3] (B 3.75 g a.i./ha) it was 18.1%. Further, the pest or weed control at 7.5 g/ha in assay [1] (sulfentrazone 7.5 g a.i./ha) was 26.9%; in assay [2] (Table 97, 7.5 g a.i./ha), 24.5%; in assay [3] (B 7.5 g a.i./ha), 29.7%. Also, the pest or weed control at 15 g/ha was found to be 54.1% in assay [1] (sulfentrazone 15 g a.i./ha); 52.6% in assay [2] (Table 97, 15 g a.i./ha); 56.1% in assay [3] (B 15 g a.i./ha).

Source of the values: patent US20220264878A1, “HERBICIDAL COMPOSITION CONTAINING R-TYPE PYRIDYLOXY CARBOXYLIC ACID DERIVATIVE AND USE THEREOF” (Qingdao Kingagroot Chemical Compound Co., Ltd., priority 2019, published 2022).
